Laboratory results from ChEMBL document CHEMBL2401618 (Eur J Med Chem, 2013).
pIC50: −log10 of the molar value.

Legend:
[1] = Safety index, ratio of IC50 for african green monkey Vero cells to IC50 for promastigote stage of Leishmania donovani LV9; assay type: toxicity, cell-based; conditions: read-out: Ratio IC50
[2] = Safety index, ratio of IC50 for african green monkey Vero cells to IC50 for bloodstream stage of Trypanosoma brucei brucei 93; assay type: toxicity, cell-based; conditions: read-out: Ratio IC50
[3] = Safety index, ratio of IC50 for african green monkey Vero cells to IC50 for chloroquine-resistant Plasmodium falciparum FcB1/Columbia infected in human erythrocytes; assay type: toxicity, cell-based; conditions: read-out: Ratio IC50
Vero = test: Cytotoxicity against african green monkey Vero cells assessed as growth inhibition after 72 hrs by MTS assay; assay type: cell-based; conditions: Chlorocebus sabaeus
Leishmania donovani = test: Leishmanicidal activity against promastigote stage of Leishmania donovani LV9 assessed as cell viability by MTT assay; assay type: functional, organism-based
Plasmodium falciparum [4] = test: Antiplasmodial activity against chloroquine-resistant Plasmodium falciparum FcB1/Columbia infected in human erythrocytes assessed as parasite growth inhibition after 24 hrs by [3H]-hypoxanthine incorporation assay; assay type: functional, organism-based
Plasmodium falciparum [5] = test: Antiplasmodial activity against chloroquine-resistant Plasmodium falciparum FcB1/Columbia infected in human erythrocytes assessed as parasite growth inhibition at 1 ug/ml after 24 hrs by [3H]-hypoxanthine incorporation assay relative to control; assay type: functional; conditions: read-out: GI
Plasmodium falciparum [6] = test: Antiplasmodial activity against chloroquine-resistant Plasmodium falciparum FcB1/Columbia infected in human erythrocytes assessed as parasite growth inhibition at 10 ug/ml after 24 hrs by [3H]-hypoxanthine incorporation assay relative to control; assay type: functional; conditions: read-out: GI
[7] = tested on: Trypanosoma brucei brucei; test: Antitrypanosomal activity against bloodstream stage of Trypanosoma brucei brucei 93 assessed as parasite growth inhibition after 72 hrs by resazurin reduction assay; assay type: functional, organism-based; conditions: Trypanosoma brucei, 93, 72 h
[8] = tested on: Trypanosoma brucei brucei; test: Antitrypanosomal activity against bloodstream stage of Trypanosoma brucei brucei 93 assessed as parasite growth inhibition at 1 ug/ml after 72 hrs by resazurin reduction assay relative to control; assay type: functional; conditions: Trypanosoma brucei, 93, 72 h; read-out: GI
[9] = tested on: Trypanosoma brucei brucei; test: Antitrypanosomal activity against bloodstream stage of Trypanosoma brucei brucei 93 assessed as parasite growth inhibition at 10 ug/ml after 72 hrs by resazurin reduction assay relative to control; assay type: functional; conditions: Trypanosoma brucei, 93, 72 h; read-out: GI
[10] = tested on: Trypanosoma brucei brucei; test: Antitrypanosomal activity against bloodstream stage of Trypanosoma brucei brucei 93 assessed as parasite growth inhibition at 50 ug/ml after 72 hrs by resazurin reduction assay relative to control; assay type: functional; conditions: Trypanosoma brucei, 93, 72 h; read-out: GI
Plasmodium falciparum [11] = test: Antiplasmodial activity against chloroquine-resistant Plasmodium falciparum FcB1/Columbia infected in human erythrocytes assessed as parasite growth inhibition at 50 ug/ml after 24 hrs by [3H]-hypoxanthine incorporation assay relative to control; assay type: functional; conditions: read-out: GI
[12] = Cytotoxicity against african green monkey Vero cells assessed as growth inhibition at 10^-5 M after 72 hrs by MTS assay relative to control; assay type: cell-based; conditions: chlorocebus sabaeus, read-out: GI

| Compound | selectivity ratio [1] | selectivity ratio [2] | selectivity ratio [3] | pIC50 (Vero) | pIC50 (Leishmania donovani) | pIC50 (Plasmodium falciparum [4]) | inhibition of growth at 1 µg/mL (Plasmodium falciparum [5]) [%] | inhibition of growth at 10 µg/mL (Plasmodium falciparum [6]) [%] | pIC50 [7] | inhibition of growth at 1 µg/mL [8] [%] | inhibition of growth at 10 µg/mL [9] [%] | inhibition of growth at 50 µg/mL [10] [%] | inhibition of growth at 50 µg/mL (Plasmodium falciparum [11]) [%] | inhibition at 72 h, 10 µM [12] [%] |
| --- | --- | --- | --- | --- | --- | --- | --- | --- | --- | --- | --- | --- | --- | --- |
| CCCC(=O)Oc1ccc(C(=O)C2=C(O)[C@]3(CC=C(C)C)C[C@H](CC=C(C)C)[C@@](C)(CCC=C(C)C)[C@](CC=C(C)C)(C2=O)C3=O)cc1OC(=O)CCC | 0.6 | 3 | 1.6 | 5.10 | 4.87 | 5.30 | -0.82 | 96.5 | 5.58 | 35 | 96.2 | 94.9 | 99.7 | – |
| CC(C)=CCC[C@]1(C)[C@@H](CC=C(C)C)C[C@]2(CC=C(C)C)C(=O)[C@@]1(CC=C(C)C)C(=O)C(C(=O)c1ccc(OCCC3OCCO3)c(OCCC3OCCO3)c1)=C2O | 1.2 | 22.8 | 20.8 | 4.38 | 4.46 | 5.70 | 17.6 | 94.1 | 5.74 | 44.8 | 96.7 | 95 | 99.6 | 29 |
| COc1ccc(C(=O)C2=C(O)[C@]3(CC=C(C)C)C[C@H](CC=C(C)C)[C@@](C)(CCC=C(C)C)[C@](CC=C(C)C)(C2=O)C3=O)cc1O [14-O-METHYL-GUTTIFERONE A] | 1.2 | 8.1 | 2.6 | 4.94 | 5.03 | 5.35 | 10.7 | 75.2 | 5.85 | 85.3 | 96.3 | 92.8 | 98.9 | – |
| CC(=O)Oc1ccc(C(=O)C2=C(O)[C@]3(CC=C(C)C)C[C@H](CC=C(C)C)[C@@](C)(CCC=C(C)C)[C@](CC=C(C)C)(C2=O)C3=O)cc1OC(C)=O | – | 1.3 | 1.1 | 5.42 | – | 5.44 | 14.9 | 97.5 | 5.53 | 38.5 | 97.2 | 93.3 | 99.7 | – |
| CC(C)=CCC[C@]1(C)[C@@H](CC=C(C)C)C[C@]2(CC=C(C)C)C(=O)[C@@]1(CC=C(C)C)C(=O)C(C(=O)c1ccc(OC(=O)C(C)(C)C)c(OC(=O)C(C)(C)C)c1)=C2O | < 1 | 11.5 | – | 4.00 | < 4.00 | – | 4.48 | 27.2 | 5.06 | 42.9 | 91.2 | 96.4 | 0.5 | 13 |
| CC(=O)Oc1cc(C(=O)C2=C(O)[C@]3(CC=C(C)C)C[C@H](CC=C(C)C)[C@@](C)(CCC=C(C)C)[C@](CC=C(C)C)(C2=O)C3=O)ccc1O | 0.8 | 2.3 | 0.9 | 5.39 | 5.30 | 5.36 | 9 | 96.7 | 5.75 | 47 | 97.3 | 95.5 | 99.1 | – |
